Measured values taken from US20240226030A1, “COMPOSITIONS AND METHODS USING AT LEAST ONE OF INOSITOL, ERYTHRITOL OR SORBITOL TO ENHANCE GROWTH OF FAECALIBACTERIUM PRAUSNITZII” (SOCIÉTÉ DES PRODUITS NESTLE S.A., priority 2021, published 2024).

Assays:
[1] = system: F. prausnitzii; test: Model organism test of sugar alcohols as energy substrate for F. prausnitzii; format: cell-based, Faecalibacterium prausnitzii; settings: FIGS. 4A and 4B
From the text: Using a model organism, the effect of inositol and sorbitol as energy substrate for F. prausnitzii was confirmed (FIGS. 4A and 4B), but not xylitol. Thus, all sugar alcohols cannot be assumed to have the same effect on F. prausnitzii.

[2] = system: F. prausnitzii; test: Growth of F. prausnitzii with added vitamins, glucose as substrate; format: cell-based, Faecalibacterium prausnitzii; settings: FIG. 6D

| Molecule | effect as energy substrate for F. prausnitzii [1] | growth of F. prausnitzii compared with control [2] |
| --- | --- | --- |
| OC[C@@H](O)[C@@H](O)CO [erythritol] | confirmed | – |
| OC[C@@H](O)[C@@H](O)[C@H](O)[C@@H](O)CO [sorbitol] | confirmed | – |
| O[C@H]1[C@H](O)[C@@H](O)[C@H](O)[C@@H](O)[C@H]1O [inositol] | confirmed | – |
| OC[C@@H](O)[C@H](O)[C@@H](O)CO [xylitol, reference compound] | not | – |
| Vitamin B12 | – | more than control |
